Experimental findings from ChEMBL document CHEMBL1129774, “Antitumor agents 171. Cytotoxicities of lobatosides B, C, D, and E, cyclic bisdesmosides isolated from Actinostemma lobatum maxim” (1996) are described below.

Type in all cases: functional
One test concerns SK-MEL-28. Description: In vitro cytotoxicity against human melanoma SK-MEL-28 cancer cell line.
The test system of the next test is SF-295. Description: In vitro cytotoxicity against human CNS cancer SF-295 cell line.
For a further test, the system named is SK-MEL-5. The test is described as follows: In vitro cytotoxicity against human melanoma SK-MEL-5 cancer cell line.
The next test has as its system OVCAR-5. Description: In vitro cytotoxicity against human ovarian cancer OVCAR-5 cell line.
The subject of the next test is UO-31. Description: In vitro cytotoxicity against human renal cancer UO-31 cell line.
For another test, the system named is A549. Description: In vitro cytotoxicity against human Non-small cell lung cancer A549/ATCC cell line.
The subject of the next test is HCC 2998. Description: In vitro cytotoxicity against human colon cancer HCC2998 cell line.
In a further test the test system is PC-3. The test is described as follows: In vitro cytotoxicity against human prostate cancer PC-3 cell line.
A further test relates to MDA-MB-435. The test is described as follows: In vitro cytotoxicity against human […] MDA-MB-435 cell line.
Another test relates to HL-60. Description: In vitro cytotoxicity against human leukemia HL-60(TB) cancer cell line.

“And” between values parts separate entries of the source, which are not always exact repeats. Identical values can stand only once.

For the compound `C[C@@H]1O[C@H]2O[C@H]3[C@@H](OC[C@H](O)[C@@H]3O)OC(=O)[C@@]34CCC5C(=CC[C@@H]6[C@@]7(C)C[C@H](O)[C@H](O[C@@H]8O[C@H](CO)[C@@H](O)[C@H](O)[C@H]8O[C@@H]8O[C@H](CO)[C@H](O)[C@H](O)[C@H]8OC(=O)CC(C)(O)CC(=O)O[C@@H]1[C@@H](O[C@@H]1O[C@H](CO)[C@@H](O)[C@H](O)[C@H]1O)[C@H]2O)C(C)(C)[C@@H]7CC[C@@]56C)[C@@H]3CC(C)(C)CC4` (stereo partly specified), the GI50 (usually the concentration at which growth is held to half of that of the control) in the test on SK-MEL-28 stood at 1290 nM; in the test with SF-295 it was 1510 nM; in the test with SK-MEL-5, 140 nM; in the test with OVCAR-5, 2000 nM; in the test on UO-31 it was 1620 nM; in the test with A549, 140 nM. Besides, the GI50 in the test with HCC 2998 was 1410 nM and 360 nM; in the test on PC-3, 1950 nM; in the test with MDA-MB-435, 1450 nM; in the test with HL-60, 1450 nM.

As to `C[C@@H]1O[C@H]2O[C@H]3[C@@H](OC[C@H](O)[C@@H]3O)OC(=O)[C@@]34CCC5C(=CC[C@@H]6[C@@]7(C)C[C@H](O)[C@H](O[C@@H]8O[C@H](CO)[C@@H](O)[C@H](O)[C@H]8O[C@H]8OC[C@H](OC(=O)CC(C)(O)CC(=O)O[C@@H]1[C@@H](O[C@@H]1O[C@H](CO)[C@@H](O)[C@H](O)[C@H]1O)[C@H]2O)C(O)[C@H]8O)C(C)(C)[C@@H]7CC[C@@]56C)[C@@H]3CC(C)(C)CC4` (stereo partly specified), the GI50 worked out at 1940 nM with SK-MEL-28; 4070 nM with SF-295; 11400 nM in the test with SK-MEL-5; 8910 nM in the test with OVCAR-5; 4470 nM in the test with UO-31; 3890 nM with A549. For the same compound, the GI50 was 2450 nM and 9330 nM with HCC 2998; 7940 nM with PC-3; 2450 nM with MDA-MB-435; 1820 nM in the test with HL-60.

Consider `C[C@@H]1O[C@H]2O[C@H]3[C@@H](OC[C@H](O)[C@@H]3O)OC(=O)[C@@]34CC[C@@H]5C(=CC[C@H]6[C@@]5(C)CC[C@H]5C(C)(C)[C@@H](O[C@@H]7O[C@H](CO)[C@@H](O)[C@H](O)[C@H]7O[C@H]7OC[C@H](OC(=O)CC(C)(O)CC(=O)O[C@@H]1[C@@H](O)[C@H]2O)[C@H](O)[C@H]7O)[C@@H](O)C[C@]65C)[C@@H]3CC(C)(C)CC4` (stereo partly specified), for which the GI50 was 1940 nM with SK-MEL-28; 3390 nM with SF-295; 4170 nM in the test on SK-MEL-5; 1320 nM in the test on OVCAR-5; 6030 nM in the test with UO-31; 2240 nM in the test on A549. Also, the GI50 is 2400 nM and 8910 nM in the test with HCC 2998; 2190 nM in the test on PC-3; 5890 nM in the test with MDA-MB-435; 1780 nM with HL-60.

As to `C[C@@H]1O[C@H]2OC3[C@@H](OC[C@H](O)[C@@H]3O)OC(=O)[C@@]34CC[C@@H]5C(=CC[C@H]6[C@@]5(C)CC[C@H]5C(C)(C)[C@@H](O[C@@H]7O[C@H](CO)[C@@H](O)[C@H](O)[C@H]7O[C@@H]7O[C@H](CO)[C@@H](O)[C@H](O)[C@H]7OC(=O)CC(C)(O)CC(=O)O[C@@H]1[C@@H](O)[C@H]2O)[C@@H](O)C[C@]65C)[C@@H]3CC(C)(C)CC4` (stereo partly specified), the GI50 came to 1510 nM with SK-MEL-28; 1780 nM with SF-295; 1200 nM with SK-MEL-5; 1620 nM in the test with OVCAR-5; 1230 nM in the test with UO-31; 1320 nM in the test with A549. For the same compound, the GI50 with HCC 2998 was determined as 1150 nM; in the test on HCC 2998 (Homo sapiens, HCC 2998) it was 1320 nM; with PC-3, 1380 nM; in the test with MDA-MB-435 it was 1580 nM; with HL-60, 1410 nM.
